# Results published in PMC10813319 (Biomedicines, 2024).
# Test system: PrP^C overexpression-induced cofilactin rods in rat hippocampal neurons
smiles,measurement,value
C[C@H](O)[C@@H](N)C(=O)N[C@@H](C(=O)N[C@H](CC(N)=O)C(=O)N[C@H](Cc1ccc(O)cc1)C(=O)N[C@@H](C(=O)O)[C@H](C)O)[C@H](C)O [RAP-103],"Rod formation induced by PrP^C overexpression, 4-day treatment",blocked
same,"Rod formation induced by PrP^C overexpression, treatment for last day only",reversed
